Where a name gives a salt, the structure may show the parent alone. Read-outs that look alike come from different tables or passages of the source.
Tests used:
[1] = molecular target: AChE (Homo sapiens, UniProt P22303); test: biochemical; settings: means ± SD of three determinations, 30 min preincubation at 25 °C, pH 7.5
[2] = molecular target: BuChE (Homo sapiens, UniProt P06276); test: biochemical
[3] = molecular target: T1, h-SERT (Homo sapiens, UniProt P31645); test: biochemical; format: binding; settings: displacement of 2 nM [3H]-paroxetine, HEK293 membranes, Cheng-Prusoff
T1 construct: purchased Perkin-Elmer RBHSTM400UA; host or cells: HEK293 membranes
T1 sequence (P31645 whole entry): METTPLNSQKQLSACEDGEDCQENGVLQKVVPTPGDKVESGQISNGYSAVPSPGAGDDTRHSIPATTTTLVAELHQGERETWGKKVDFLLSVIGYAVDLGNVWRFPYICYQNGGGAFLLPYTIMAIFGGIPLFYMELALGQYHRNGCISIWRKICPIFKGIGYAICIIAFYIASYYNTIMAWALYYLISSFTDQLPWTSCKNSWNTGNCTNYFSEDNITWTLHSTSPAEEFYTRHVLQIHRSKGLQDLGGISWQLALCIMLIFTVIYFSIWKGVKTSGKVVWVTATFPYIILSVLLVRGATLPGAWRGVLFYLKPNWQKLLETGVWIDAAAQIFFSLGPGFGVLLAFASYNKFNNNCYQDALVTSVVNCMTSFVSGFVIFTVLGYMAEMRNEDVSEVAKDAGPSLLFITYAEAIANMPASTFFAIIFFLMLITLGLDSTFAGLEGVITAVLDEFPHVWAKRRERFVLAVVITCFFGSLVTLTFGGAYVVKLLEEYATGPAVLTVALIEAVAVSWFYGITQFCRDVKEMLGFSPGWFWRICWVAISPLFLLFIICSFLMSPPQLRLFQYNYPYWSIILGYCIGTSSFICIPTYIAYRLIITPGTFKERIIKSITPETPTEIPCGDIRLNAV
Experimental: Competitive binding studies were conducted on homogenized membranes prepared from the human clonal cell line HEK293 for h-SERT. […] The inhibitory activity on AChE or butyrylcholinesterase (BuChE), which has also been regarded as a relevant cholinesterase target in AD [23], was determined using the spectrophotometric method, as described by Ellman, modified from Mella (Section 3.3).
The cellular background HEK293 containing 400 µL of h-SERT (Code RBHSTM400UA, Perkin-Elmer, Santiago, Chile) was diluted in 12 Eppendorf tubes, containing a storage buffer solution of Tris-HCl 50 mM (pH 7.4), EDTA 0.5 mM, MgCl2 10 mM, and 10% sucrose, obtaining a final volume between 260 and 340 µL, which was finally stored at −80 °C [27]. […] Non-specific binding was determined using […] fluoxetine. After 30 min at 27 °C, the incubation was stopped by rapid filtration on a Whatman GF/C filter preabsorbed in 0.5% polyethylenimine (PEI), washed with cold working buffer solution, 3 × 3 mL, filtered, and scintillation liquid was added.

[4] = test system: human AChE; h-AChE; settings: read-out: IC50 in human AChE (h-AChE); ref [14],[15],[16]; cited from earlier work
[5] = means ± SD of three determinations, 30 min preincubation at 25 °C, pH 7.5, read-out: BuChE IC50

BuChE, sequence (P06276 29-602): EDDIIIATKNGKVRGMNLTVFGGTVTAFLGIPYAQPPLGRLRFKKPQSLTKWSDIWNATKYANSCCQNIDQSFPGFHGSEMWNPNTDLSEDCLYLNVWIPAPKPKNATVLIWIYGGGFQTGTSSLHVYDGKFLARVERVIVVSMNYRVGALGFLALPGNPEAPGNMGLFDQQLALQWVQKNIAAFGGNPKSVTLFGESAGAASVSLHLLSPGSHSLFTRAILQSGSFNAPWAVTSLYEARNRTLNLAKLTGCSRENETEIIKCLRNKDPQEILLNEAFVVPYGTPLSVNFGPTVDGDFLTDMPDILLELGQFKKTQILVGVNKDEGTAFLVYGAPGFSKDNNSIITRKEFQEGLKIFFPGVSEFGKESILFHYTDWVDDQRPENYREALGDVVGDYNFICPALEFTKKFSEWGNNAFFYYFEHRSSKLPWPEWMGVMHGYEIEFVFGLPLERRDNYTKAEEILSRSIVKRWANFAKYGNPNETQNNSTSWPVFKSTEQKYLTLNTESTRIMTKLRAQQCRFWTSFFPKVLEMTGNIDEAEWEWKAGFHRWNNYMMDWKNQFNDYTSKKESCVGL
AChE, sequence (P22303 32-614): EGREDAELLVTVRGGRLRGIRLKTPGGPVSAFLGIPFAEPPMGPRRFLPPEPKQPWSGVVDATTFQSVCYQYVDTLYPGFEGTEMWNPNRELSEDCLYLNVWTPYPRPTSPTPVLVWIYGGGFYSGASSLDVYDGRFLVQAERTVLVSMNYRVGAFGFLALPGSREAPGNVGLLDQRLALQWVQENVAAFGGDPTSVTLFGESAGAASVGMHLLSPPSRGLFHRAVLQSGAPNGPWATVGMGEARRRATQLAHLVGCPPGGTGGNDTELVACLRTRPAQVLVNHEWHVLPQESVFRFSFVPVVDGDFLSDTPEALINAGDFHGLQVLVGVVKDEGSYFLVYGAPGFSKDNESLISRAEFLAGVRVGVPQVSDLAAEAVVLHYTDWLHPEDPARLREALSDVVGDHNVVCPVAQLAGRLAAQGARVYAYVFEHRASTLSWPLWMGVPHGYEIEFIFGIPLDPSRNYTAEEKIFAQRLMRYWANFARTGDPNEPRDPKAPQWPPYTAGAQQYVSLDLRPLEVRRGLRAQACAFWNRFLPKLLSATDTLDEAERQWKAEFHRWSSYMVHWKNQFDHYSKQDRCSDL

SMILES	IC50 ([1]; read-out: AChE IC50)	IC50 [2, 5]	Ki [3]	IC50 ([1]; AChE IC50 (µM))	IC50 [2]	IC50 [4]
COc1cc2c(cc1OC)CN(C(=O)C1CCN(Cc3ccccc3)CC1)CC2 [Compound 7, (1-Benzylpiperidin-4-yl)(6,7-dimethoxy-3,4-dihydroisoquinolin-2(1H)-yl)methanone]	34.4 ± 0.51 µM	> 500 µM	> 100 µM	–	–	–
COc1cc2c(cc1OC)CN(C(=O)C1CCN(Cc3cccc(F)c3)CC1)CC2 [Compound 8, (6,7-Dimethoxy-3,4-dihydroisoquinolin-2(1H)-yl)(1-(3-fluorobenzyl)piperidin-4-yl)methanone]	41.2 ± 3.17 µM	> 500 µM	> 100 µM	–	–	–
COc1cc2c(cc1OC)CN(C(=O)C1CCN(Cc3cccc(Cl)c3)CC1)CC2 [Compound 9, (1-(3-Chlorobenzyl)piperidin-4-yl)(6,7-dimethoxy-3,4-dihydroisoquinolin-2(1H)-yl)methanone]	34.5 ± 1.97 µM	268 ± 13.8 µM	> 100 µM	–	–	–
COc1cc2c(cc1OC)CN(C(=O)C1CCN(Cc3cccc(Br)c3)CC1)CC2 [Compound 10, (1-(3-Bromobenzyl)piperidin-4-yl)(6,7-dimethoxy-3,4-dihydroisoquinolin-2(1H)-yl)methanone]	28.3 ± 0.87 µM	426 ± 28.6 µM	> 100 µM	–	–	–
COc1cc2c(cc1OC)CN(C(=O)C1CCN(Cc3ccc(Cl)cc3Cl)CC1)CC2 [Compound 11, (1-(2,4-Dichlorobenzyl)piperidin-4-yl)(6,7-dimethoxy-3,4-dihydroisoquinolin-2(1H)-yl)methanone]	> 500 µM	> 500 µM	> 100 µM	–	–	–
COc1cc2c(cc1OC)CN(CC1CCN(C(=O)c3ccccc3)CC1)CC2 [Compound 12, (4-((6,7-Dimethoxy-3,4-dihydroisoquinolin-2(1H)-yl)methyl)piperidin-1-yl)(phenyl)methanone]	290 ± 10.9 µM	> 500 µM	2.62 ± 0.82 µM	–	–	–
COc1cc2c(cc1OC)CN(CC1CCN(C(=O)c3cccc(F)c3)CC1)CC2 [Compound 13, (4-((6,7-Dimethoxy-3,4-dihydroisoquinolin-2(1H)-yl)methyl)piperidin-1-yl)(3-fluorophenyl)methanone]	> 500 µM	> 500 µM	1.91 ± 0.77 µM	–	–	–
COc1cc2c(cc1OC)CN(CC1CCN(C(=O)c3cccc(Cl)c3)CC1)CC2 [Compound 14, (3-Chlorophenyl)(4-((6,7-dimethoxy-3,4-dihydroisoquinolin-2(1H)-yl)methyl)piperidin-1-yl)methanone]	> 500 µM	> 500 µM	2.43 ± 0.24 µM	–	–	–
COc1cc2c(cc1OC)CN(CC1CCN(C(=O)c3cccc(Br)c3)CC1)CC2 [Compound 15, (3-Bromophenyl)(4-((6,7-dimethoxy-3,4-dihydroisoquinolin-2(1H)-yl)methyl)piperidin-1-yl)methanone]	242 ± 24.4 µM	> 500 µM	1.47 ± 0.73 µM	–	–	–
COc1cccc(C(=O)N2CCC(CN3CCc4cc(OC)c(OC)cc4C3)CC2)c1 [Compound 16, (4-((6,7-Dimethoxy-3,4-dihydroisoquinolin-2(1H)-yl)methyl)piperidin-1-yl)(3-methoxyphenyl)methanone]	439 ± 28 µM	> 500 µM	1.59 ± 0.58 µM	–	–	–
O=C(Cc1ccccc1)OCC1CCN(Cc2ccccc2)CC1 [Compound 18, (1-Benzylpiperidin-4-yl)methyl-2-phenylacetate]	–	–	27.1 ± 3.4 µM	200 ± 8.61 µM	256 ± 5.03 µM	–
O=C(Cc1ccc(F)cc1)OCC1CCN(Cc2ccccc2)CC1 [Compound 19, (1-Benzylpiperidin-4-yl)methyl-2-(4-fluorophenyl)acetate]	5.1 ± 0.24 µM	26.8 ± 0.81 µM	–	–	–	–
O=C(Cc1ccc(Cl)cc1)OCC1CCN(Cc2ccccc2)CC1 [Compound 20, (1-Benzylpiperidin-4-yl)methyl-2-(4-chlorophenyl)acetate]	259 ± 14.6 µM	> 500 µM	> 100 µM	–	–	–
O=C(OCC1CCN(Cc2ccccc2)CC1)C(c1ccccc1)c1ccccc1 [Compound 21, (1-Benzylpiperidin-4-yl)methyl-2,2-diphenylacetate]	> 500 µM	6.16 ± 0.29 µM	25.5 ± 1.01 µM	–	–	–
O=C(OCC1CCN(Cc2ccccc2)CC1)c1ccc2ccccc2c1 [Compound 22, (1-Benzylpiperidin-4-yl)methyl-2-naphthoate]	61.7 ± 2.56 µM	59.3 ± 1.42 µM	26.9 ± 2.57 µM	–	–	–
COc1ccc2c3c1O[C@H]1C[C@@H](O)C=C[C@@]31CCN(C)C2 [GAL, Galantamine hydrobromide]	–	–	–	–	–	18.6 µM

Source: publication PMC12299174, “Design, Synthesis, and Evaluation of 1-Benzylpiperidine and 1-Benzoylpiperidine Derivatives as Dual-Target Inhibitors of Acetylcholinesterase and Serotonin Transporter for Alzheimer′s Disease” (Molecules, 2025)
